In patent USRE38257E1, “Piperdine derivatives and hypotensives containing the same” (Ajinomoto Co., Inc., priority 1988, dated 2003):

Test system: male spontaneously hypertensive rats
Assay: Decrease in systolic blood pressure in spontaneously hypertensive rats after intravenous bolus injection, indirect (tail-cuff) method
Format: in vivo, rat
Settings: for Decrease in systolic blood pressure (mmHg) time after administration (hour) 0.5: 0.5 hour after administration; for Decrease in systolic blood pressure (mmHg) time after administration (hour) 4: 4 hours after administration
Description: As test animals, four male spontaneously hypertensive rats (weight 400 to 440 g) that were sufficiently adapted for feeding and in which hypertension was confirmed were used.
Physiological saline aqueous solution containing 2.5% Nicolle and 2.5% ethanol of sample was intravenously administered by bolus injection at a dose of 1 ml per 1 kg of body weight. Systolic blood pressure after administration was measured by the indirect (tail-cuff) method.

[1] = dose 10 mg/kg i.v. bolus, hydrochloride, 10 mg/kg

Compound | Decrease in systolic blood pressure (mmHg) time after administration (hour) 0.5 (dose 10 mg/kg i.v. bolus) [mmHg] | Decrease in systolic blood pressure (mmHg) time after administration (hour) 4 (dose 10 mg/kg i.v. bolus) [mmHg] | also measured
CC(=O)Nc1ccc(CCCN2CCC(=C3c4ccccc4C=Cc4ccccc43)CC2)cc1.Cl.Cl [Example 249, 1-(4-Acetylaminophenyl)-3-(4-(5H-Dibenzo[a,d]cyclohepten-5-ylidene)-1-piperidinyl)propane dihydrochloride] | −121 | −100 | 
COC(=O)c1ccc(C=CCN2CCC(=C3c4ccccc4C=Cc4ccccc43)CC2)cc1.Cl [Example 376, 4-(5H-Dibenzo[a,d]cyclohepten-5-ylidene)-1-(4-methoxycarbonylcinnamyl)piperidine hydrochloride] |  |  | Decrease in systolic blood pressure (mmHg) time after administration (hour) 0.5 (dose 3 mg/kg i.v. bolus): −106 mmHg; Decrease in systolic blood pressure (mmHg) time after administration (hour) 4 (dose 3 mg/kg i.v. bolus): −77 mmHg
Cl.O=[N+]([O-])c1ccccc1CCCCN1CCC(=C2c3ccccc3C=Cc3ccccc32)CC1 [Example 255, 4-(4-(5H-Dibenzo[a,d]cyclohepten-5-ylidene)-1-piperidinyl)-1-(2-nitrophenyl)butane hydrochloride] | −62 | 2 | 
COc1ccc(CCCN2CCC(=C3c4ccccc4C=Cc4ccccc43)CC2)c(OC)c1.Cl.Cl [Example 328, 3-(4-(5H-Dibenzo[a,d]cyclohepten-5-ylidene)-1-piperidinyl)-1-(2,4-dimethoxyphenyl)propane dihydrochloride] | −125 | −87 | 
COc1ccc(CCCN2CCC(=C3c4ccccc4C=Cc4ccccc43)CC2)cc1OC.Cl [Example 201, 4-(5H-Dibenzo[a,d]cyclohepten-5-ylidene)-1-(-3-(3′,4′-dimethoxyphenyl)propyl)piperidine hydrochloride] | −118 | −21 | 
Cl.Cl.Nc1ccc(C=CCN2CCC(=C3c4ccccc4CCc4ccccc43)CC2)cc1 [Example 351, 1-(4-Aminocinnamyl)-4-(10,11-dihydro-5H-Dibenzo[a,d]cyclohepten-5-ylidene)-1-piperidine dihydrochloride] |  |  | Decrease in systolic blood pressure (mmHg) time after administration (hour) 0.5 (dose 3 mg/kg i.v. bolus): −70 mmHg; Decrease in systolic blood pressure (mmHg) time after administration (hour) 4 (dose 3 mg/kg i.v. bolus): −21 mmHg
Cl.[O-][S+](CCCN1CCC(=C2c3ccccc3C=Cc3ccccc32)CC1)c1ccccc1 (stereo not shown) [Example 239, 3-(4-(5H-Dibenzo[a,d]cyclohepten-5-ylidene)-1-piperidinyl)-1-propyl phenylsulphoxide hydrochloride] | −68 | −15 | 
C1=Cc2ccccc2C(=C2CCN(CCCc3cccnc3)CC2)c2ccccc21.Cl.Cl [Example 270, 3-(4-(5H-Dibenzo[a,d]cyclohepten-5-ylidene)-1-piperidinyl)-1-(3-pyridyl)propane dihydrochloride] | −18 | 2 | 
COC1CCCC(CCCCN2CCC(=C3c4ccccc4C=Cc4ccccc43)CC2)C1.Cl (stereo not shown) [Example 299, 1-(1-(3-Methoxy)cyclohexyl)-4-(4-(5H-dibenzo[a,d]cyclohepten-5-ylidene)-1-piperidinyl)butane hydrochloride] | −134 | −45 | 
C1=Cc2ccccc2C(=C2CCN(CCCCC3CCCCC3)CC2)c2ccccc21.Cl [Example 10, 1-Cyclohexyl-4-(4-(5H-dibenzo[a,d]cyclohepten-5-ylidene)-1-piperidinyl)butane hydrochloride] |  |  | Decrease in systolic blood pressure (mmHg) time after administration (hour) 0.5 [1]: −129 mmHg; Decrease in systolic blood pressure (mmHg) time after administration (hour) 4 [1]: −21 mmHg
COc1cc(C=CCN2CCC(=C3c4ccccc4C=Cc4ccccc43)CC2)ccc1OC(C)=O.Cl [Example 366, 1-(4-Acetoxy-3-methoxycinnamyl)-4-(5H-Dibenzo[a,d]cyclohepten-5-ylidene)-1-piperidine hydrochloride] |  |  | Decrease in systolic blood pressure (mmHg) time after administration (hour) 0.5 (dose 3 mg/kg i.v. bolus): −152 mmHg; Decrease in systolic blood pressure (mmHg) time after administration (hour) 4 (dose 3 mg/kg i.v. bolus): −113 mmHg
C1=Cc2ccccc2C(=C2CCN(Cc3ccccn3)CC2)c2ccccc21.Cl.Cl [Example 161, 4-(5H-Dibenzo[a,d]cyclohepten-5-ylidene)-1-(2-Picolyl)piperidine dihydrochloride] | −64 | −12 | 
2-(2-4-Dibenzo[a,d]cyclohepten-5-ylidene)-1-piperidinyl)-1-ethyl)-5′,6′-dimethoxy-1-indanone hydrochloride [Example 261] | −123 | −11 | 
COC1CCC(CCCN2CCC(=C3c4ccccc4C=Cc4ccccc43)CC2)CC1.Cl (stereo not shown) [Example 324, 1-(1-(4-Methoxy)cyclohecyl)-3-(4-(5H-Dibenzo[a,d]cyclohepten-5-ylidene)-1-piperidinyl)propane hydrochloride] | −137 | −46 | 
Cl.O=C(CCCN1CCC(=C2c3ccccc3C=Cc3ccccc32)CC1)c1cccs1 [Example 234, 4-(4-(5H-Dibenzo[a,d]cyclohepten-5-ylidene)-1-piperidinyl)-1-(2-thienyl)-1-butanone hydrochloride] | −96 | −2 | 
Cl.O=C(NCCN1CCCCC1=C1c2ccccc2C=Cc2ccccc21)c1cccc([N+](=O)[O-])c1 [Example 290, N-(2-(5H-Dibenzo[a,d]cyclohepten-5-ylidene)-1-piperidinyl)ethyl-3-nitrobenzamide hydrochloride] |  |  | Decrease in systolic blood pressure (mmHg) time after administration (hour) 0.5 (dose 3 mg/kg i.v. bolus): −15 mmHg; Decrease in systolic blood pressure (mmHg) time after administration (hour) 4 (dose 3 mg/kg i.v. bolus): 15 mmHg
CCOC(=O)C1CCN(C(=O)CCCN2CCC(=C3c4ccccc4C=Cc4ccccc43)CC2)CC1.Cl [Example 217, 1-(4-(4-(5H-Dibenzo[a,d]cyclohepten-5-ylidene)-1-piperidinyl)butanoyl)-4-ethoxyxarbonpiperidine hydrochloride] | −18 | −20 | 
Cl.Fc1c(F)c(F)c(CN2CCC(=C3c4ccccc4C=Cc4ccccc43)CC2)c(F)c1F [Example 120, 4-(5H-Dibenzo[a,d]cyclohepten-5-ylidene)-1-pentafluorobenzylpiperidine hydrochloride] |  |  | Decrease in systolic blood pressure (mmHg) time after administration (hour) 0.5 (dose 3 mg/kg i.v. bolus): −17 mmHg; Decrease in systolic blood pressure (mmHg) time after administration (hour) 4 (dose 3 mg/kg i.v. bolus): −12 mmHg
COc1ccccc1CCCN1CCC(=C2c3ccccc3C=Cc3ccccc32)CC1.Cl [Example 298, 3-(4-(5H-Dibenzo[a,d]cyclohepten-5-ylidene)-1-piperidinyl)-1-(2-methoxyphenyl)propane hydrochloride] | −111 | −31 | 
CN1CCCC(CCCCN2CCC(=C3c4ccccc4C=Cc4ccccc43)CC2)C1.Cl.Cl (stereo not shown) [Example 295, 4-(4-(5H-Dibenzo[a,d]cyclohepten-5-ylidene)-1-piperidinyl)-1-(N-methyl-3-piperidinyl)butane dihydrochloride] |  |  | Decrease in systolic blood pressure (mmHg) time after administration (hour) 0.5 (dose 3 mg/kg i.v. bolus): −36 mmHg; Decrease in systolic blood pressure (mmHg) time after administration (hour) 4 (dose 3 mg/kg i.v. bolus): 1 mmHg
CCC(CCN1CCC(=C2c3ccccc3C=Cc3ccccc32)CC1)C(=O)c1ccc(OC)c(OC)c1.Cl (stereo not shown) [Example 278, 4-(4-(5H-dibenzo[a,d]cyclohepten-5-ylidene)-1-piperidinyl)-2-ethyl-3′,4′-dimethoxybutyrophenone hydrochloride] | −64 | 2 | 
COc1ccccc1C=CCN1CCC(=C2c3ccccc3C=Cc3ccccc32)CC1.Cl [Example 347, 4-(5H-Dibenzo[a,d]cyclohepten-5-ylidene)-1-(2-methoxycinnamyl)piperidine hydrochloride] |  |  | Decrease in systolic blood pressure (mmHg) time after administration (hour) 0.5 (dose 3 mg/kg i.v. bolus): −116 mmHg; Decrease in systolic blood pressure (mmHg) time after administration (hour) 4 (dose 3 mg/kg i.v. bolus): −53 mmHg
CCCCCCCCCCN1CCC(=C2c3ccccc3CCc3ccccc32)CC1.Cl [Example 185, 1-Decyl-4-(10,11-Dihydro-5H-dibenzo[a,d]cyclohepten-5-ylidene)piperidine hydrochloride] | −66 | −10 | 
COc1cc(CCCN2CCC(=C3c4ccccc4C=Cc4ccccc43)CC2)cc(OC)c1OC.Cl.Cl [Example 317, 3-(4-(5H-Dibenzo[a,d]cyclohepten-5-ylidene)-1-piperidinyl)-1-(3,4,5-trimethoxyphenyl)propane dihydrochloride] | −118 | −14 | 
COc1cc(C=CCN2CCC(=C3c4ccccc4C=Cc4ccccc43)CC2)ccc1[N+](=O)[O-].Cl [Example 387, 4-(5H-Dibenzo[a,d]cyclohepten-5-ylidene)-1-(3-methoxy-4-nitrocinnamyl)piperidine hydrochloride] | −112 | −50 | 
5-(4-(5H-Dibenzo[a,d]cyclohepten-5-ylidene)-1-piperidinyl)-2-isopropyl-2-phenylvaleronitrile hydrochloride [Example 122] | −120 | −62 | 
